Assay results from PMC6934184, “Selective DNA-PKcs inhibition extends the therapeutic index of localized radiotherapy and chemotherapy” (The Journal of Clinical Investigation, 2019).

Biological target: T1, CAMK2B (CaMKII beta) (Homo sapiens, UniProt Q13554)
T1 construct: purchased Thermo Fisher Scientific (Life Technologies) SelectScreen
Assay: SelectScreen Z'LYTE
Type: biochemical
Outline: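 NU5455 was profiled across the SelectScreen Broad panel of kinase activity and binding assays. Z'LYTE reactions such as CSF1R ran at apparent Km ATP, while the Adapta CAMK1 assay used ATP listed as 10. Values are given as percent.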

T1 sequence (Q13554 whole entry): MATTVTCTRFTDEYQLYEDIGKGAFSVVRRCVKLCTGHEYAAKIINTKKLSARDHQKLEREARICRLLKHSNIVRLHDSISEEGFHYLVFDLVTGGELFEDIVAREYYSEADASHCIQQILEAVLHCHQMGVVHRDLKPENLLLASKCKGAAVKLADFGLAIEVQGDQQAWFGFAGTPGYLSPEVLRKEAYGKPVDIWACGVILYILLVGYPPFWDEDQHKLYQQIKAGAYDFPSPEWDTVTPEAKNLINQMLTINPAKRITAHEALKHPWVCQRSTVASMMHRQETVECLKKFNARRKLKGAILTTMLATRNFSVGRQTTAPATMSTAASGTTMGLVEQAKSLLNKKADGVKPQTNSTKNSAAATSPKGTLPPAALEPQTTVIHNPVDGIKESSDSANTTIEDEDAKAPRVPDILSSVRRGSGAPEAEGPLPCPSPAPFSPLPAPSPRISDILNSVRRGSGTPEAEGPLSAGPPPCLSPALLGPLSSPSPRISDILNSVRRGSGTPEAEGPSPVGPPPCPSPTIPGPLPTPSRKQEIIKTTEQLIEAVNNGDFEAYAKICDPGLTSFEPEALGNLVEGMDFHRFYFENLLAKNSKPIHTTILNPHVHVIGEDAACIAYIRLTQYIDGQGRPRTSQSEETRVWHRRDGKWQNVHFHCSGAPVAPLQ

SMILES: CN(C(=O)CN1CCOCC1)c1ccc2sc3c(-c4cccc5c(=O)cc(N6CC7CCC(C6)O7)oc45)cccc3c2c1 [NU5455]
- inhibition at 1 µM: 0.7%
